Test results from patent US12129312B2, “Peptide compound, application thereof and composition containing same” (priority 2017, dated 2024).
Numbered stars: 1 amine (or outer) side, 2 acyl side, 3 side chain; on linkers, the order of the positions; unused ones are H or OH. Square brackets hold non-standard residues; d marks the D form. Peptide text beside a SMILES is read from it. * marks the point of attachment. X6 = CCCN([C@@H](CC(C)C)C(=O)[*:2])[*:1]; Gly(Nα-CH2CH2CONH2) = NC(=O)CCNCC(=O)O; 1Nal = N[C@@H](Cc1cccc2ccccc12)C(=O)O; 2Nal = N[C@@H](Cc1ccc2ccccc2c1)C(=O)O; Pentanoyl(5-Ph) = O=C(CCCCc1ccccc1)*; dNMeY = CN[C@H](Cc1ccc(O)cc1)C(=O)O; Butanoyl(4-Ph) = O=C(CCCc1ccccc1)*; Hydrocinnamoyl = O=C(CCc1ccccc1)*; NEtLeu = CCN[C@@H](CC(C)C)C(=O)O; NMeF = CN[C@@H](Cc1ccccc1)C(=O)O; Tic = O=C(O)[C@@H]1Cc2ccccc2CN1; dTic = O=C(O)[C@H]1Cc2ccccc2CN1; NMeL = CN[C@@H](CC(C)C)C(=O)O; d(hSer) = N[C@H](CCO)C(=O)O; NMeS = CN[C@@H](CO)C(=O)O; Thz = O=C(O)[C@@H]1CSCN1

biological target: T1, human Chemokine like receptor 1 (Homo sapiens, UniProt Q99788); experiment: Activation of Tango CMKLR1-bla U2OS cells (beta-lactamase FRET reporter); assay type: cell-based; conditions: determination by the method of Effect Embodiment 1; read-out: EC50
T1 construct: host or cells: U2OS (Tango CMKLR1-bla U2OS)
T1 sequence (Q99788 1-373): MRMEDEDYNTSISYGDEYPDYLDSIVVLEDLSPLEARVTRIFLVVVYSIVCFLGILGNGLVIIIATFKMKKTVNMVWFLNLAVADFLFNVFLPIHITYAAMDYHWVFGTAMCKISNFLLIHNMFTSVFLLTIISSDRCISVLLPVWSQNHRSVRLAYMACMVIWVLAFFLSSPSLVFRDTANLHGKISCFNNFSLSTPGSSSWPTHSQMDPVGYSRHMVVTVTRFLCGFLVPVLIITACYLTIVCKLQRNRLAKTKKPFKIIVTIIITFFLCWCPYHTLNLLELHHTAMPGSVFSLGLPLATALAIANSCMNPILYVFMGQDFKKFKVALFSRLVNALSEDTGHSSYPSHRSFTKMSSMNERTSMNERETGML
Description: The polypeptide sequences described above are the polypeptide sequences disclosed in the patent JP2010-229093A of BANYU PHARMA CO LTD: (D-Tyr)-Phe-Leu-Pro-(D-Ser)-Gln-Phe-(D-Ala)-Tic-Ser was used as a positive control (SEQ ID NO: 102).
The activation of the compound on Tango™ CMKLR1-bla U2OS cells (Invitrogen Cat. nos. K1551) was tested.
The activation of each compound in the above experiments on Tango™ CMKLR1-bla U2OS cells was determined as follows:
Day 1: Cell Seeding on Plate
2. The medium was removed, and the cells were washed with DPBS twice, followed by addition of 3 mL of 0.05% trypsin, and placed in a 37° C., 5% CO2 incubator (Thermo Fisher, Waltham, Massachusetts, USA) for 3-5 minutes. After the cells were rounded, 3-5 mL of medium (medium formula: DMEM 90%, Dialyzed FBS 10%, NEAA 0.1 mM, HEPES (pH 7.3) 25 mM, Penicillin 100 U/mL, Streptomycin 100 μg/mL) was added to terminate digestion.
2. The digested cells were transferred to a 15 mL centrifuge tube (430790, Corning), centrifuged at 1000 rpm for 5 minutes (5810R, Eppendorf, Hamburg, Germany), and the supernatant was discarded.
3. 7 mL of medium (DMEM+10% FBS) was added, blowed into a single cell suspension, counted by a cell counter, and adjusted the cell suspension to a desired cell density of 250,000/mL with the medium.
4. The cell suspension was seeded into a 384-well cell plate (Corning 3712) in 40 μL/well to make the number of cells 10000 cells/well, and 32 μL of medium was added to the blank control.
5. The incubation was performed overnight at 37° C. under 5% CO2.
Day 2: Dosing and Testing
1. Preparation of 200× Compound Plate
1.1 The test compound was formulated into a 10 mM working solution in DMSO.
1.2 45 μL of 10 mM test compound was added to the 2nd column of rows A to P in the Echo-384 well plate. The compound was subjected to a 3-fold dilution with Precision (30 μL of DMSO was added to the 3rd to 11th columns; 15 μL of the drug solution was pipetted from the 2nd column to the 3rd column, blown and evenly mixed; then 15 μL of the drug solution was pipetted from the 3rd column to the 4th column, blown and evenly mixed; the drugs was subjected to a 3-fold dilution to obtain 10 concentrations in total). The 1st and 12th columns of the Echo-384 well plate were supplemented with 30 μL of DMSO.
2. Preparation of Intermediate Plate
500 nL, i.e., 0.5 μL of the diluted compound (or DMSO) in the 200× compound plate was transferred into the corresponding position of V-bottom 384-well plate with Echo. 20 μL of medium was added to each well, centrifuged, shaken and evenly mixed. The concentration of the drugs in each well of the 2nd to 11th column of intermediate plate (i.e., 5× compound plate) were shown in following Table 4.
3.1 The cell plate was taken out from the incubator and observed under a microscope. The diluted compound or DMSO in the intermediate plate was added to the cell plate in 10 μL/well in the corresponding cell plate, and 40 μL of medium was pre-filled in each well.
3.2 The cells were incubated at 37° C. under 5% CO2 for 4 hours.
4.1 1 mM CCF4-AM, solution B, Solution C, and Solution D were used to prepare an appropriate amount of 6× detection solution. The LiveBLAzer™-FRET B/G Loading kit (K1095, Thermo Fisher, Waltham, Massachusetts, USA) kit containing CCF-4AM and solutionB, solutionC, and solutionD was also purchased from invitrogen (K1157, Thermo Fisher, Waltham, Massachusetts, USA).
4.2 The cells were observed under a microscope and the cell plate was equilibrated to room temperature.
4.3 6 μL of CCF-4AM dissolved solution A, 60 μL of solution B, 904 μL of solution C and 30 μL of solution D were pipetted in an EP tube, blown, and evenly mixed to obtain a 6× detection solution. The prepared 6× detection solution was pipetted to a 384-well plate in 10 μL/well.

Row | Structure (SMILES) | EC50
1 | CC(C)C[C@H](NC(=O)[C@H](Cc1ccccc1)NC(=O)[C@H](N)Cc1ccc(O)cc1)C(=O)N1CCC[C@H]1C(=O)N[C@H](CO)C(=O)N[C@@H](CCC(N)=O)C(=O)N[C@@H](Cc1ccccc1)C(=O)N[C@H](C)C(=O)N1Cc2ccccc2C[C@@H]1C(=O)N[C@@H](CO)C(=O)O [YW-149, (D-Tyr)-Phe-Leu-Pro-(D-Ser)-Gln-Phe-(D-Ala)-D-Tic-Ser-OH] (H-[dY]FLP[dS]QF[dA][dTic]S-OH) | 21 nM
2 | CCCN(C(=O)[C@H](Cc1ccccc1)NC(=O)[C@@H](Cc1ccc(O)cc1)NC(=O)CCc1ccccc1)[C@@H](CC(C)C)C(=O)N1CCC[C@H]1C(=O)N[C@H](CO)C(=O)N[C@@H](CCC(N)=O)C(=O)N[C@@H](Cc1ccccc1)C(=O)N[C@H](C)C(=O)N1Cc2ccccc2C[C@H]1C(=O)N[C@@H](CO)C(=O)O [YW-186, 3-Phenylpropanoyl-(D-Tyr)-Phe-(NPr-Leu)-Pro-(D-Ser)-Gln-Phe-(D-Ala)-Tic-Ser] (Hydrocinnamoyl-[dY]F[X6]P[dS]QF[dA][Tic]S-OH) | 11 nM
3 | CC(C)C[C@H](NC(=O)[C@H](Cc1ccccc1)NC(=O)[C@@H](Cc1ccc(O)cc1)NC(=O)CCCc1ccccc1)C(=O)N1CCC[C@H]1C(=O)N[C@H](CO)C(=O)N[C@@H](CCC(N)=O)C(=O)N[C@@H](Cc1ccccc1)C(=O)N[C@H](C)C(=O)N1Cc2ccccc2C[C@H]1C(=O)N[C@@H](CO)C(=O)O [YW-75, 4-Phenylbutanoyl-(D-Tyr)-Phe-Leu-Pro-(D-Ser)-Gln-Phe-(D-Ala)-Tic-Ser-OH] ({Butanoyl(4-Ph)}-[dY]FLP[dS]QF[dA][Tic]S-OH) | 50 nM
4 | CC(C)C[C@@H](C(=O)N1CCC[C@H]1C(=O)N[C@H](CO)C(=O)N[C@@H](CCC(N)=O)C(=O)N[C@@H](Cc1ccccc1)C(=O)N[C@H](C)C(=O)N1Cc2ccccc2C[C@@H]1C(=O)N(C)[C@@H](CO)C(=O)O)N(C)C(=O)[C@H](Cc1ccccc1)NC(=O)[C@H](N)Cc1ccc(O)cc1 [YW-182, (D-Tyr)-Phe-(NMe-Leu)-Pro-(D-Ser)-Gln-Phe-(D-Ala)-(D-Tic)-(NMe-Ser)] (H-[dY]F[NMeL]P[dS]QF[dA][dTic][NMeS]-OH) | 41 nM
5 | CC(C)C[C@H](NC(=O)[C@H](Cc1ccccc1)N(C)C(=O)[C@H](N)Cc1ccc(O)cc1)C(=O)N1CCC[C@H]1C(=O)N[C@H](CO)C(=O)N[C@@H](CCC(N)=O)C(=O)N[C@@H](Cc1ccccc1)C(=O)N[C@H](C)C(=O)N1Cc2ccccc2C[C@H]1C(=O)N[C@@H](CO)C(=O)O [YW-104, (D-Tyr)-(NMe-Phe)-Leu-Pro-(D-Ser)-Gln-Phe-(D-Ala)-Tic-Ser-OH] (H-[dY][NMeF]LP[dS]QF[dA][Tic]S-OH) | 80 nM

Other lines, results leading:

Row | EC50 | Structure (SMILES)
6 | 43 nM | CC(C)C[C@H](NC(=O)[C@H](Cc1ccccc1)NC(=O)[C@@H](Cc1ccc(O)cc1)NC(=O)CCCCc1ccccc1)C(=O)N1CCC[C@H]1C(=O)N[C@H](CO)C(=O)N[C@@H](CCC(N)=O)C(=O)N[C@@H](Cc1ccccc1)C(=O)N[C@H](C)C(=O)N1Cc2ccccc2C[C@H]1C(=O)N[C@@H](CO)C(=O)O [YW-76, 5-phenylvaleroyl-(D-Tyr)-Phe-Leu-Pro-(D-Ser)-Gln-Phe-(D-Ala)-Tic-Ser-OH] ({Pentanoyl(5-Ph)}-[dY]FLP[dS]QF[dA][Tic]S-OH)
7 | 1.4 nM | CN[C@H](Cc1ccc(O)cc1)C(=O)N[C@@H](Cc1ccccc1)C(=O)N(C)[C@@H](CC(C)C)C(=O)N1CCC[C@H]1C(=O)N[C@H](CO)C(=O)N[C@@H](CCC(N)=O)C(=O)N[C@@H](Cc1ccc2ccccc2c1)C(=O)N[C@H](C)C(=O)N1Cc2ccccc2C[C@H]1C(=O)N(C)[C@@H](CO)C(=O)O [YW-146, (D-NMe-Tyr)-Phe-(NMe-Leu)-Pro-(D-Ser)-Gln-2Nal-(D-Ala)-Tic-(NMe-Ser)-OH] (H-[dNMeY]F[NMeL]P[dS]Q[2Nal][dA][Tic][NMeS]-OH)
8 | > 50000 nM | CC(C)C[C@H](NC(=O)[C@H](Cc1ccccc1)NC(=O)[C@H](N)Cc1ccc(O)cc1)C(=O)N1CCC[C@H]1C(=O)N[C@H](CO)C(=O)N(CCC(N)=O)CC(=O)N[C@@H](Cc1ccccc1)C(=O)N[C@H](C)C(=O)N1Cc2ccccc2C[C@H]1C(=O)N[C@@H](CO)C(=O)O [YW-108, (D-Tyr)-Phe-Leu-Pro-(D-Ser)-NGln-Phe-(D-Ala)-Tic-Ser-OH] (H-[dY]FLP[dS][Gly(Nα-CH2CH2CONH2)]F[dA][Tic]S-OH)
9 | 62 nM | CC(C)C[C@@H](C(=O)N1CCC[C@H]1C(=O)N[C@@H](C(=O)N[C@@H](CCC(N)=O)C(=O)N[C@@H](Cc1ccccc1)C(=O)N[C@H](C)C(=O)N1Cc2ccccc2C[C@H]1C(=O)N[C@@H](CO)C(=O)O)[C@H](C)O)N(C)C(=O)[C@H](Cc1ccccc1)NC(=O)[C@H](N)Cc1ccc(O)cc1 [YW-204, (D-Tyr)-Phe-(NMe-Leu)-Pro-(D-Thr)-Gln-Phe-(D-Ala)-Tic-Ser] (H-[dY]F[NMeL]P[dT]QF[dA][Tic]S-OH; N-terminus assumed)
10 | 1.2 nM | CN[C@H](Cc1ccc(O)cc1)C(=O)N[C@@H](Cc1ccccc1)C(=O)N(C)[C@@H](CC(C)C)C(=O)N1CCC[C@H]1C(=O)N[C@H](CO)C(=O)N[C@@H](CCC(N)=O)C(=O)N[C@@H](Cc1cccc2ccccc12)C(=O)N[C@H](C)C(=O)N1Cc2ccccc2C[C@H]1C(=O)N[C@@H](CO)C(=O)O [YW-168, (D-NMe-Tyr)-Phe-(NMe-Leu)-Pro-(D-Ser)-Gln-1Nal-(D-Ala)-Tic-Ser-OH] (H-[dNMeY]F[NMeL]P[dS]Q[1Nal][dA][Tic]S-OH)
11 | 9.2 nM | CCN(C(=O)[C@H](Cc1ccccc1)NC(=O)[C@H](N)Cc1ccc(O)cc1)[C@@H](CC(C)C)C(=O)N1CCC[C@H]1C(=O)N[C@H](CO)C(=O)N[C@@H](CCC(N)=O)C(=O)N[C@@H](Cc1ccccc1)C(=O)N[C@H](C)C(=O)N1Cc2ccccc2C[C@H]1C(=O)N[C@@H](CO)C(=O)O [YW-183, (D-Tyr)-Phe-(NEt-Leu)-Pro-(D-Ser)-Gln-Phe-(D-Ala)-Tic-Ser] (H-[dY]F[NEtLeu]P[dS]QF[dA][Tic]S-OH)
12 | 91 nM | CC(C)C[C@@H](C(=O)N1CCC[C@H]1C(=O)N[C@H](CCO)C(=O)N[C@@H](CCC(N)=O)C(=O)N[C@@H](Cc1ccccc1)C(=O)N[C@H](C)C(=O)N1Cc2ccccc2C[C@H]1C(=O)N[C@@H](CO)C(=O)O)N(C)C(=O)[C@H](Cc1ccccc1)NC(=O)[C@H](N)Cc1ccc(O)cc1 [YW-175, (D-Tyr)-Phe-(NMe-Leu)-Pro-(D-HoSer)-Gln-Phe-(D-Ala)-Tic-Ser-OH] (H-[dY]F[NMeL]P[d(hSer)]QF[dA][Tic]S-OH; N-terminus assumed)
13 | 5 nM | CC(C)C[C@H](NC(=O)[C@H](Cc1ccccc1)NC(=O)[C@H](N)Cc1ccc(O)cc1)C(=O)N1CSC[C@H]1C(=O)N[C@H](CO)C(=O)N[C@@H](CCC(N)=O)C(=O)N[C@@H](Cc1ccccc1)C(=O)N[C@H](C)C(=O)N1Cc2ccccc2C[C@H]1C(=O)N[C@@H](CO)C(=O)O [YW-114, (D-Tyr)-Phe-Leu-Thz-(D-Ser)-Gln-Phe-(D-Ala)-Tic-Ser-OH] (H-[dY]FL[Thz][dS]QF[dA][Tic]S-OH)
